Results: US20220119354A1, “DIAMINO-SUBSTITUTED PYRIDINES AND PYRIMIDINES AS HERBICIDES” (FMC Corporation, priority 2019, published 2022)

Experiments:
Type in all cases: in vivo
[1] = tested on: ryegrass, Italian (Lolium multiflorum); assay: Test A postemergence, Italian ryegrass; conditions: 0 to 100 scale
Summary of the method: (§1)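 Ratings reflect visual comparison with untreated controls roughly 10 d after greenhouse application, 0 meaning no effect and 100 complete control. Treatment was by directed soil spray at planting or by spray onto one- to two-leaf plants in loam/sand pots.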

[2] = tested on: rice (Oryza sativa); assay: Test B flooded paddy test, rice; conditions: Flood, 250 g ai/ha, applied to paddy water, 2-leaf stage, visual evaluation after 13 to 15 d
Summary of the method: (§2)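 Pots flooded to 3 cm above the soil when treated, with test compound added straight to the water and the flood maintained. Treated plants were at the 2-leaf stage and stayed 13–15 d in greenhouse. Response versus untreated controls scored visually from 0 (no effect) to 100 (complete control).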

[3] = tested on: barnyardgrass (Echinochloa crus-galli); assay: Test B flooded paddy test, barnyardgrass; conditions: Flood, 250 g ai/ha, applied to paddy water, 2-leaf stage, visual evaluation after 13 to 15 d
Summary of the method: as §2

[4] = tested on: kochia (Kochia scoparia); assay: Test A preemergence, kochia; conditions: 0 to 100 scale; for Kochia plant response rating: 0 is no effect, 100 is complete control
Summary of the method: as §1

[5] = tested on: ryegrass, Italian (Lolium multiflorum); assay: Test A preemergence, Italian ryegrass; conditions: 0 to 100 scale; for Ryegrass, Italian plant response rating: 0 is no effect, 100 is complete control
Summary of the method: as §1

[6] = tested on: foxtail, giant (Setaria faberii); assay: Test A postemergence, giant foxtail; conditions: 0 to 100 scale
Summary of the method: as §1

[7] = tested on: ragweed (common ragweed, Ambrosia elatior); assay: Test A preemergence, ragweed; conditions: 0 to 100 scale; for Ragweed plant response rating: 0 is no effect, 100 is complete control
Summary of the method: as §1

[8] = tested on: barnyardgrass (Echinochloa crus-galli); assay: Test A postemergence, barnyardgrass; conditions: 0 to 100 scale
Summary of the method: as §1

[9] = tested on: pigweed (Amaranthus retroflexus); assay: Test A preemergence, pigweed; conditions: 0 to 100 scale; for Pigweed plant response rating: 0 is no effect, 100 is complete control
Summary of the method: as §1

[10] = tested on: pigweed (Amaranthus retroflexus); assay: Test A postemergence, pigweed; conditions: 0 to 100 scale
Summary of the method: as §1

[11] = tested on: corn (Zea mays); assay: Test A postemergence, corn; conditions: 0 to 100 scale
Summary of the method: as §1

[12] = tested on: kochia (Kochia scoparia); assay: Test A postemergence, kochia; conditions: 0 to 100 scale
Summary of the method: as §1

[13] = tested on: barnyardgrass (Echinochloa crus-galli); assay: Test A preemergence, barnyardgrass; conditions: 0 to 100 scale; for Barnyardgrass plant response rating: 0 is no effect, 100 is complete control
Summary of the method: as §1

[14] = tested on: ducksalad (Heteranthera limosa); assay: Test B flooded paddy test, ducksalad; conditions: Flood, 250 g ai/ha, applied to paddy water, 2-leaf stage, visual evaluation after 13 to 15 d
Summary of the method: as §2

[15] = tested on: wheat (Triticum aestivum); assay: Test A postemergence, wheat; conditions: 0 to 100 scale
Summary of the method: as §1

[16] = tested on: ragweed (common ragweed, Ambrosia elatior); assay: Test A postemergence, ragweed; conditions: 0 to 100 scale
Summary of the method: as §1

[17] = tested on: galium (catchweed bedstraw, Galium aparine); assay: Test A postemergence, galium; conditions: 0 to 100 scale
Summary of the method: as §1

[18] = tested on: blackgrass (Alopecurus myosuroides); assay: Test A postemergence, blackgrass; conditions: 0 to 100 scale
Summary of the method: as §1

[19] = tested on: foxtail, giant (Setaria faberii); assay: Test A preemergence, giant foxtail; conditions: 0 to 100 scale; for Foxtail, Giant plant response rating: 0 is no effect, 100 is complete control
Summary of the method: as §1

[20] = tested on: sedge, umbrella (small-flower umbrella sedge, Cyperus difformis); assay: Test B flooded paddy test, umbrella sedge; conditions: Flood, 250 g ai/ha, applied to paddy water, 2-leaf stage, visual evaluation after 13 to 15 d
Summary of the method: as §2

[21] = 31 g ai/ha, 0 no effect, 100 complete control
[22] = 125 g ai/ha, 0 no effect, 100 complete control
[23] = 500 g ai/ha, 0 no effect, 100 complete control

`Cc1cccc2sc([C@@H](C)Nc3ncc(C(F)(F)F)c(N)n3)cc12` [Compound 115] was tested, and the “Plant response rating, Ryegrass, Italian” value [1, 21] was 30, the “Plant response rating, Ryegrass, Italian” value [1, 22] was 50 and the “Plant response rating, Rice (0 to 100 scale, 0 is no effect, 100 is complete control)” value [2] was 0. For the same compound, the “Plant response rating, Barnyardgrass (0 to 100 scale, 0 is no effect, 100 is complete control)” value [3] was 90, the “Kochia plant response rating” value ([4]; 31 g ai/ha) was 40 and the “Kochia plant response rating” value ([4]; 125 g ai/ha) was 80. For the same compound, the “Ryegrass, Italian plant response rating” value ([5]; 31 g ai/ha) was 20, the “Ryegrass, Italian plant response rating” value ([5]; 125 g ai/ha) was 40 and the “Plant response rating, Foxtail, Giant” value [6, 21] was 60. For the same compound, the “Plant response rating, Foxtail, Giant” value [6, 22] was 100, the “Ragweed plant response rating” value ([7]; 31 g ai/ha) was 60 and the “Ragweed plant response rating” value ([7]; 125 g ai/ha) was 80. The “Plant response rating, Barnyardgrass” value [8, 21] was 10, the “Plant response rating, Barnyardgrass” value [8, 22] was 100 and the “Pigweed plant response rating” value ([9]; 31 g ai/ha) was 90. For the same compound, the “Pigweed plant response rating” value ([9]; 125 g ai/ha) was 100, the “Plant response rating, Pigweed” value [10, 21] was 100 and the “Plant response rating, Pigweed” value [10, 22] was 100. For the same compound, the “Plant response rating, Corn” value [11, 21] was 10, the “Plant response rating, Corn” value [11, 22] was 100 and the “Plant response rating, Kochia” value [12, 21] was 70. The “Plant response rating, Kochia” value [12, 22] was 90, the “Barnyardgrass plant response rating” value ([13]; 31 g ai/ha) was 20 and the “Barnyardgrass plant response rating” value ([13]; 125 g ai/ha) was 60. The “Plant response rating, Ducksalad (0 to 100 scale, 0 is no effect, 100 is complete control)” value [14] was 65, the “Plant response rating, Wheat” value [15, 21] was 0 and the “Plant response rating, Wheat” value [15, 22] was 20. The “Plant response rating, Ragweed” value [16, 21] was 30, the “Plant response rating, Ragweed” value [16, 22] was 80 and the “Plant response rating, Galium” value [17, 21] was 50. For the same compound, the “Plant response rating, Galium” value [17, 22] was 90, the “Plant response rating, Blackgrass” value [18, 21] was 0 and the “Plant response rating, Blackgrass” value [18, 22] was 30. The “Foxtail, Giant plant response rating” value ([19]; 31 g ai/ha) was 30, the “Foxtail, Giant plant response rating” value ([19]; 125 g ai/ha) was 90 and the “Plant response rating, Sedge, Umbrella (0 to 100 scale, 0 is no effect, 100 is complete control)” value [20] was 95.

For `Cc1cccc(OCC(C)Nc2ncc(C(F)(F)F)c(N)n2)c1` (stereo not drawn) [Compound 32], the “Plant response rating, Ryegrass, Italian” value ([1]; 125 g ai/ha) was 0, the “Plant response rating, Ryegrass, Italian” value ([1]; 500 g ai/ha) was 0 and the “Plant response rating, Rice (0 to 100 scale, 0 is no effect, 100 is complete control)” value [2] was 0. For the same compound, the “Plant response rating, Barnyardgrass (0 to 100 scale, 0 is no effect, 100 is complete control)” value [3] was 0, the “Kochia plant response rating” value ([4]; 125 g ai/ha) was 0 and the “Plant response rating, Kochia” value ([4]; 500 g ai/ha) was 30. The “Ryegrass, Italian plant response rating” value ([5]; 125 g ai/ha) was 0, the “Plant response rating, Ryegrass, Italian” value ([5]; 500 g ai/ha) was 0 and the “Plant response rating, Foxtail, Giant” value ([6]; 125 g ai/ha) was 0. For the same compound, the “Plant response rating, Foxtail, Giant” value ([6]; 500 g ai/ha) was 40, the “Ragweed plant response rating” value ([7]; 125 g ai/ha) was 0 and the “Plant response rating, Ragweed” value ([7]; 500 g ai/ha) was 100. For the same compound, the “Plant response rating, Barnyardgrass” value ([8]; 125 g ai/ha) was 0, the “Plant response rating, Barnyardgrass” value ([8]; 500 g ai/ha) was 20 and the “Pigweed plant response rating” value ([9]; 125 g ai/ha) was 10. For the same compound, the “Plant response rating, Pigweed” value ([9]; 500 g ai/ha) was 60, the “Plant response rating, Pigweed” value ([10]; 125 g ai/ha) was 30 and the “Plant response rating, Pigweed” value ([10]; 500 g ai/ha) was 60. For the same compound, the “Plant response rating, Corn” value ([11]; 125 g ai/ha) was 0, the “Plant response rating, Corn” value ([11]; 500 g ai/ha) was 0 and the “Plant response rating, Kochia” value ([12]; 125 g ai/ha) was 20. For the same compound, the “Plant response rating, Kochia” value ([12]; 500 g ai/ha) was 60, the “Barnyardgrass plant response rating” value ([13]; 125 g ai/ha) was 0 and the “Plant response rating, Barnyardgrass” value ([13]; 500 g ai/ha) was 90. For the same compound, the “Plant response rating, Ducksalad (0 to 100 scale, 0 is no effect, 100 is complete control)” value [14] was 0, the “Plant response rating, Wheat” value ([15]; 125 g ai/ha) was 0 and the “Plant response rating, Wheat” value ([15]; 500 g ai/ha) was 0. For the same compound, the “Plant response rating, Ragweed” value ([16]; 125 g ai/ha) was 0, the “Plant response rating, Ragweed” value ([16]; 500 g ai/ha) was 40 and the “Plant response rating, Galium” value ([17]; 125 g ai/ha) was 60. For the same compound, the “Plant response rating, Galium” value ([17]; 500 g ai/ha) was 70, the “Plant response rating, Blackgrass” value ([18]; 125 g ai/ha) was 0 and the “Plant response rating, Blackgrass” value ([18]; 500 g ai/ha) was 0. The “Foxtail, Giant plant response rating” value ([19]; 125 g ai/ha) was 20, the “Plant response rating, Foxtail, Giant” value ([19]; 500 g ai/ha) was 80 and the “Plant response rating, Sedge, Umbrella (0 to 100 scale, 0 is no effect, 100 is complete control)” value [20] was 0.

In the case of `CC(Nc1ncc(S(C)(=O)=O)c(N)n1)c1cc2ccccc2s1` (stereo not drawn) [Compound 107], the “Plant response rating, Ryegrass, Italian” value [1, 22] is reported as 0, the “Plant response rating, Ryegrass, Italian” value [1, 23] is reported as 40 and the “Plant response rating, Rice (0 to 100 scale, 0 is no effect, 100 is complete control)” value [2] is reported as 0. The “Plant response rating, Barnyardgrass (0 to 100 scale, 0 is no effect, 100 is complete control)” value [3] was 45, the “Kochia plant response rating” value ([4]; 125 g ai/ha) was 80 and the “Kochia plant response rating” value ([4]; 500 g ai/ha) was 100. The “Ryegrass, Italian plant response rating” value ([5]; 125 g ai/ha) was 50, the “Ryegrass, Italian plant response rating” value ([5]; 500 g ai/ha) was 90 and the “Plant response rating, Foxtail, Giant” value [6, 22] was 10. The “Plant response rating, Foxtail, Giant” value [6, 23] was 60, the “Ragweed plant response rating” value ([7]; 125 g ai/ha) was 100 and the “Ragweed plant response rating” value ([7]; 500 g ai/ha) was 100. The “Plant response rating, Barnyardgrass” value [8, 22] was 20, the “Plant response rating, Barnyardgrass” value [8, 23] was 100 and the “Pigweed plant response rating” value ([9]; 125 g ai/ha) was 60. For the same compound, the “Pigweed plant response rating” value ([9]; 500 g ai/ha) was 100, the “Plant response rating, Pigweed” value [10, 22] was 80 and the “Plant response rating, Pigweed” value [10, 23] was 100. The “Plant response rating, Corn” value [11, 22] was 0, the “Plant response rating, Corn” value [11, 23] was 30 and the “Plant response rating, Kochia” value [12, 22] was 50. The “Plant response rating, Kochia” value [12, 23] was 90, the “Barnyardgrass plant response rating” value ([13]; 125 g ai/ha) was 20 and the “Barnyardgrass plant response rating” value ([13]; 500 g ai/ha) was 100. The “Plant response rating, Ducksalad (0 to 100 scale, 0 is no effect, 100 is complete control)” value [14] was 70, the “Plant response rating, Wheat” value [15, 22] was 0 and the “Plant response rating, Wheat” value [15, 23] was 30. The “Plant response rating, Ragweed” value [16, 22] was 40, the “Plant response rating, Ragweed” value [16, 23] was 100 and the “Plant response rating, Galium” value [17, 22] was 70. The “Plant response rating, Galium” value [17, 23] was 80, the “Plant response rating, Blackgrass” value [18, 22] was 0 and the “Plant response rating, Blackgrass” value [18, 23] was 80. The “Foxtail, Giant plant response rating” value ([19]; 125 g ai/ha) was 30, the “Foxtail, Giant plant response rating” value ([19]; 500 g ai/ha) was 100 and the “Plant response rating, Sedge, Umbrella (0 to 100 scale, 0 is no effect, 100 is complete control)” value [20] was 75.
